Results: patent US20150335548A1, “Oral Care Composition” (COLGATE-PALMOLIVE COMPANY, priority 2012, published 2015)

Legend:
[1] = system: 3-day old biofilm of the artificial mouth consortium of bacteria (A. naeslundii, S. oralis, V. parvula, L. casei, F. nucleatum) and S. mutans; assay: In vitro biofilm removal, 3-day old biofilm (protocol of Example 2); format: cell-based; details: for Percent Removal of a 3-day Oral Biofilm: […] ionic liquid in base prototype mouth rinse of Table 1, 15 minutes, relative to water control; for Percent Biofilm Removal: BMIM-based ionic liquids
Method: The 3-day old biofilm was grown on a 24 well plate using the artificial mouth consortium of bacteria (A. naeslundii, S. oralis, V. parvula, L. casei, F. nucleatum) and S. mutans. To generate the biofilm, plates were inoculated with saliva overnight to form a pellicle. The consortium of bacteria (1 mL) at an OD of ˜0.2 was added to each well. The bacterial media (Tryptic Soy Broth with 6% sucrose) was changed after 48 hours. The 3-day old biofilm was treated with the prototype formulation (500 μL) for 15 minutes on a plate shaker at 300 rpm. After incubation, the supernatant was discarded. The optical density of each well was measured and the percentage reduction in optical density relative to the control (water) was calculated to determine the effect of the prototype formulation on biofilm removal. […]
Water, untreated biofilm, commercially available mouthwash formulations with CPC (Cetyl pyridinium chloride) and a mouthwash containing five enzymes for combatting biofilm acted as […] for the experiment.

A. viscosus = assay: Growth inhibition of A. viscosus (optical density over time); format: cell-based; details: for optical density of A. viscosus culture, 0 h / optical density of A. viscosus culture, 4 h / optical density of A. viscosus culture, 22 h / optical density of A. viscosus culture, 24 h: 10% concentration in a mouth rinse
Method: The effects of 1-decyl-3-methylimidazolium (DMIM) chloride on bacterial growth were investigated in vitro. DMIM chloride was incorporated into a prototype mouth rinse as illustrated in Table 17. […] The growth inhibition was measured as a change in optical density over time.
The antibacterial effects of various ionic liquids were determined according to the protocol described in Example 12.

[2] = system: 3-day old multispecies oral biofilm (artificial mouth consortium combined with Streptococcus mutans); assay: In vitro removal of biofilm by prototype mouthrinse formulations (Example 8); format: cell-based; details: for Percent Biofilm Removal: 10% glycerin and 5% propylene glycol; for % removal in High humectant mouthwash / % removal in Low humectant mouthwash: 3-day old biofilm
Method: General Procedures Used to Prepare Biofilm
The analyst used a commercially available fluoride dentifrice (Colgate Pro Clinical) and a soft bristled toothbrush (Colgate 360) for routine oral hygiene for 3 days prior to the start of saliva collection. Saliva was collected in the morning, at least two hours after a meal and was centrifuged at 10,000 rpm for 20 minutes. The supernatant was decanted into a Petri dish and placed under UV for 45 minutes.
Bacteria Preparation: Bacteria were taken from the artificial mouth consortium (containing Actinomyces naeslundii, Streptococcus oralis, Veillonella parvula, Lactobacillus casei, and Fusibacterium nucleatum) and combined with Streptococcus mutans which had been grown separately in a ratio of 2:1. Bacteria were grown in tryptic soy broth (TSB) media with 6% sucrose. The resulting bacterial culture was diluted to the required volume, prior to diluting to an optical density of 0.2.
Plate Preparation: 500 μL of UV-treated saliva were added to each well of a 24-well plate. Plates were inoculated overnight in 37° C. After inoculation, excess saliva was discarded and 1 ml of bacteria was added to each well. The bacteria were allowed to attach and develop a biofilm on the bottom of each well over 2 to 4 days, changing the media every 48 hours. During media change, the old media was discarded and 1 ml of fresh media was added.
Treatment: 500 μL of ionic liquid formulation was added to each well and incubated for 4-30 minutes on a plate shaker at 300 rpm. After incubation, the supernatant was discarded. No rinsing was carried out. The optical density of each well was measured at 610 nm, and the percentage reduction in biofilm reduction relative to the control (water) was calculated.
Second Treatment: 500 μL of ionic liquid formulation was added to each well and incubated for 4-30 minutes on a plate shaker at 300 rpm. After discarding the supernatant, the optical density was measured and the percentage reduction in biofilm formation relative to the control (water) was calculated.
An 8 factor design was used. Colgate Plax Re-launch mouth rinse was used a base formulation to build upon. […] Table 11 illustrates the general formulation on the basis of which the prototype formulations were designed.
74 prototype formulations were developed. There are shown below in Table 12 (see next page). Table 12 further illustrates the percentage biofilm reduction after one 15-minute treatment of a 3-day-old biofilm with the formulation, and the viscosity for each formulation. In Table 12, PG is propylene glycol; CPC is cetyl pyridinium chloride; and TRIS is tris(2-hydroxyethyl)methylammonium methylsulfate. All amounts are given in wt %.

[3] = Teeth whitening, in-vitro removal of tooth stains (one hour soak); parameters: species or system human; details: 1M in prototype mouth wash of Table 7
Method: The method of determining the effects of imidazolium-based ionic liquids on teeth whitening was carried out as follows:
The initial L*a*b* measurements of dried artificially stained human teeth were captured. The teeth were then soaked in 1 ml of sample solution for one hour, and sample was replenished at 30 minutes. After treatment, teeth were soaked in DI water for approximately 10 minutes. The teeth were left to dry at least overnight, and final L*a*b* measurements were then taken. (L*a*b* refers to stain score in accordance with the Commission International de L'Eclairage Laboratory (CIELAB) color scale. L* (lightness-darkness scale), a* (red-green chroma) and b* (yellow-blue chroma)).
The whitening efficacy was determined as follows:
All the EMIM-based compounds were evaluated at 1M concentration in a prototype mouth wash formulation as illustrated in Table 7.

[4] = other ionic liquids, 3-day old biofilm
[5] = […] in base prototype mouth rinse of Table 1, 3-day old biofilm
[6] = direct comparison EMIM vs BMIM with different anions, 3-day old biofilm
[7] = one ionic liquid at 10, the other at 0
[8] = one ionic liquid at 20, the other at 0
[9] = EMIM-based ionic liquids, […] in base prototype mouth rinse of Table 1, 3-day old biofilm

For “1,2,4-trimethylpyrazolium methylsulfate [MMMPz MeSO4]”, the “Percent Removal of a 3-day Oral Biofilm” value [1] was 57.8%, the “Percent Biofilm Removed” value [1, 4] was 57.9% and the “optical density of A. viscosus culture, 0 h” value (“optical density … 0 h” for short) (A. viscosus) was 0.1482. For the same compound, the “optical density of A. viscosus culture, 4 h” value (A. viscosus) was 0.1978, the “optical density of A. viscosus culture, 22 h” value (“optical density … 22 h” below) (A. viscosus) was 0.8519 and the “optical density of A. viscosus culture, 24 h” value (“optical density … 24 h” below) (A. viscosus) was 1.0042.

For `C=CCn1cc[n+](C)c1.[Cl-]` [AMIM Cl, 1-allyl-3-methylimidazolium (AMIM) chloride], the “biofilm removal, comparison in words” value ([1]; 3-day old biofilm) was “effective in removing biofilm”, the “Percent Removal of a 3-day Oral Biofilm” value [1] was 44.8% and the “Percent Biofilm Removed” value [1, 4] was 44.8%. For the same compound, the “optical density … 0 h” value (A. viscosus) was 0.1482, the “optical density of A. viscosus culture, 4 h” value (A. viscosus) was 0.2265 and the “optical density … 22 h” value (A. viscosus) was 0.7091. For the same compound, the “optical density … 24 h” value (A. viscosus) was 0.8440.

With `CCCCn1cc[n+](C)c1.[Br-]` [BMIM Br, 1-butyl-3-methylimidazolium (BMIM) bromide] the “Percent Biofilm Removal” value [1, 5] was 48.0%, the “Percent Removal of a 3-day Oral Biofilm” value [1] was 48.0% and the “Percent Biofilm Removed” value [1, 6] was 48.0%. The “optical density … 0 h” value (A. viscosus) was 0.1482, the “optical density of A. viscosus culture, 4 h” value (A. viscosus) was 0.2373 and the “optical density … 22 h” value (A. viscosus) was 0.5994. The “optical density … 24 h” value (A. viscosus) was 0.8244.

For `CCCCn1cc[n+](C)c1.[Cl-]` [BMIM Cl, 1-butyl-3-methylimidazolium (BMIM) chloride], the “Percent Biofilm Removal” value [1, 5] was 43.8%, the “Percent Removal of a 3-day Oral Biofilm” value [1] was 43.8% and the “Percent Biofilm Removed” value [1, 6] was 43.8%.

For `CCCCn1cc[n+](C)c1.COS(=O)(=O)[O-]` [BMIM MeSO4, BMIM methyl sulfate], the “Percent Biofilm Removal” value [1, 5] was 53.9% and the “Percent Removal of a 3-day Oral Biofilm” value [1] was 53.9%.

For `CC(=O)[O-].CCCCn1cc[n+](C)c1` [BMIM OAc, BMIM acetate], the “Percent Biofilm Removal” value [1, 5] was 55.8%, the “Percent Removal of a 3-day Oral Biofilm” value [1] was 55.9% and the “Percent Biofilm Removed” value [1, 6] was 55.8%.

In the case of `CCCCCCCCOS(=O)(=O)[O-].CCCCn1cc[n+](C)c1` [BMIM Octyl SO4, BMIM octyl sulfate], the “Percent Biofilm Removal” value [1, 5] is reported as 58.6% and the “Percent Removal of a 3-day Oral Biofilm” value [1] is reported as 58.6%.

For `C[N+](C)(C)CCO.O=C([O-])c1ccccc1O` [Choline salicylate, choline salicylate], the Percent Biofilm Removal [2, 7] was 48%, the “Percent biofilm removal if sorbitol at 20%” value [2, 7] was 53% and the Percent Biofilm Removal [2, 8] was 61%. For the same compound, the “Percent biofilm removal if sorbitol at 20%” value [2, 8] was 66%, the “optical density … 0 h” value (A. viscosus) was 0.1482 and the “optical density of A. viscosus culture, 4 h” value (A. viscosus) was 0.1523. The “optical density … 22 h” value (A. viscosus) was 0.1542, the “optical density … 24 h” value (A. viscosus) was 0.1539 and the “growth inhibition of A. viscosus, in words” value (A. viscosus; formulated at 10% concentration in a mouth rinse) was “greater growth inhibition of A. viscosus than control compositions containing cetyl pyridinium chloride”.

In the case of `CCn1cc[n+](C)c1.[Cl-]` [EMIM Cl, 1-ethyl-3-methylimidazolium (EMIM) chloride], the “Percent Biofilm Removed” value [1, 9] is reported as 44.3%, the “Percent Removal of a 3-day Oral Biofilm” value [1] is reported as 44.3% and the “Percent Biofilm Removed” value [1, 6] is reported as 44.3%.

With `CCOS(=O)(=O)[O-].CCn1cc[n+](C)c1` [EMIM Ethyl SO4, EMIM ethyl sulfate] the “Percent Biofilm Removed” value [1, 9] was 48.1%, the “Percent Removal of a 3-day Oral Biofilm” value [1] was 48.1% and the ΔE [3] was 4.41. The ΔL [3] was 3.40, the ΔW [3] was −2.99 and the “optical density … 0 h” value (A. viscosus) was 0.1482. For the same compound, the “optical density of A. viscosus culture, 4 h” value (A. viscosus) was 0.2499, the “optical density … 22 h” value (A. viscosus) was 0.7514 and the “optical density … 24 h” value (A. viscosus) was 0.7965.

In the case of `CC(=O)[O-].CCn1cc[n+](C)c1` [EMIM OAc, EMIM acetate], the “Percent Biofilm Removed” value [1, 9] is reported as 52.1%, the “Percent Removal of a 3-day Oral Biofilm” value [1] is reported as 52.1% and the “Percent Biofilm Removed” value [1, 6] is reported as 52.1%. For the same compound, the “optical density … 0 h” value (A. viscosus) was 0.1482, the “optical density of A. viscosus culture, 4 h” value (A. viscosus) was 0.2324 and the “optical density … 22 h” value (A. viscosus) was 0.7942. The “optical density … 24 h” value (A. viscosus) was 0.8223.

For `CCn1cc[n+](C)c1.Cc1ccc(S(=O)(=O)[O-])cc1` [EMIM Tosylate, EMIM tosylate], the “Percent Biofilm Removed” value [1, 9] was 59.5% and the “Percent Removal of a 3-day Oral Biofilm” value [1] was 59.5%.

With `CCOP(=O)([O-])OCC.CCn1cc[n+](C)c1` [EMIM diethyl PO4, EMIM diethyl phosphate] the “Percent Biofilm Removed” value [1, 9] was 52.7% and the “Percent Removal of a 3-day Oral Biofilm” value [1] was 52.7%.

With `C[N+](C)(C)CCO.[Cl-]` [F: Choline chloride, Choline chloride] the “optical density … 0 h” value (A. viscosus) was 0.1482, the “optical density of A. viscosus culture, 4 h” value (A. viscosus) was 0.2445 and the “optical density … 22 h” value (A. viscosus) was 1.0236. For the same compound, the “optical density … 24 h” value (A. viscosus) was 1.0674.

For `COS(=O)(=O)[O-].Cc1n(C)cc[n+]1C` [TMIM MeSO4, 1,2,3-trimethylimidazolium (TMIM) methyl sulfate], the “Percent Removal of a 3-day Oral Biofilm” value [1] was 51.8% and the “Percent Biofilm Removed” value [1, 4] was 51.8%.

With `OC[C@@H](O)[C@@H](O)[C@H](O)[C@@H](O)CO` [sorbitol] the “increase in biofilm removal” value ([2]; 20% sorbitol in the formulations) was ~5%.

For choline acetate, the “optical density … 0 h” value (A. viscosus) was 0.1482, the “optical density of A. viscosus culture, 4 h” value (A. viscosus) was 0.2559 and the “optical density … 22 h” value (A. viscosus) was 0.9480. The “optical density … 24 h” value (A. viscosus) was 1.0385.

In the case of “tris(2-hydroxyethyl)methylammonium methylsulfate [MTEOA MeSO4]”, the “Percent Removal of a 3-day Oral Biofilm” value [1] is reported as 52.8%, the “Percent Biofilm Removed” value [1, 4] is reported as 52.8% and the “% removal in High humectant mouthwash” value ([2]; Conc Tris-HMAM 1%) is reported as 39.0%. The “% removal in Low humectant mouthwash” value ([2]; Conc Tris-HMAM 1%) was 25.6%, the “% removal in High humectant mouthwash” value ([2]; Conc Tris-HMAM 2.5%) was 50.5% and the “% removal in Low humectant mouthwash” value ([2]; Conc Tris-HMAM 2.5%) was 28.2%. The “% removal in High humectant mouthwash” value ([2]; Conc Tris-HMAM 5%) was 53.9%, the “% removal in Low humectant mouthwash” value ([2]; Conc Tris-HMAM 5%) was 30.9% and the “% removal in High humectant mouthwash” value ([2]; Conc Tris-HMAM 10%) was 57.7%. For the same compound, the “% removal in Low humectant mouthwash” value ([2]; Conc Tris-HMAM 10%) was 46.8%, the “% removal in High humectant mouthwash” value ([2]; Conc Tris-HMAM 20%) was 71.1% and the “% removal in Low humectant mouthwash” value ([2]; Conc Tris-HMAM 20%) was 57.3%. For the same compound, the “% removal in High humectant mouthwash” value ([2]; Conc Tris-HMAM 40%) was 73.2%, the “% removal in Low humectant mouthwash” value ([2]; Conc Tris-HMAM 40%) was 67.1% and the Percent Biofilm Removal [2, 7] was 47%. The “Percent biofilm removal if sorbitol at 20%” value [2, 7] was 52%, the Percent Biofilm Removal [2, 8] was 60% and the “Percent biofilm removal if sorbitol at 20%” value [2, 8] was 65%. For the same compound, the “optical density … 0 h” value (A. viscosus) was 0.1482, the “optical density of A. viscosus culture, 4 h” value (A. viscosus) was 0.2605 and the “optical density … 22 h” value (A. viscosus) was 0.8415. For the same compound, the “optical density … 24 h” value (A. viscosus) was 0.9087.
